Source: patent publication US4225579A, “Means and method for improving defenses against caries” (priority 1979, dated 1980)
Residues, ends and D or L forms follow the SMILES beside them.

Columns and labels:
Type in all cases: cell-based
oral bacteria [1] = experiment: pH of glucose solution incubated with oral bacteria suspension, Sets I-IV; settings: 37° C.; for pH at 0 minutes: 0 time when bacteria added, test substance 3.3 mM in combined composition
Procedure: Experiments were performed in vitro using supernatant saliva. The saliva was obtained from random donors whose salivary secretions were paraffin block stimulated. The saliva donations were pooled before and after sediment removal.
Four sets of three 10×75 mm test tubes were provided with 0.2 ml of 8.4 mM (millimolar) of aqueous glucose solution. Set I was provided with 0.2 ml of pooled supernatant saliva. Set II was provided with 0.2 ml of 9.9 mM of the peptide glycine-glycine-arginine. Set III was provided with 0.2 ml of 9.9 mM arginine. Set IV was provided with 0.2 ml of distilled water. Sequentially 0.2 ml of a 50:50 aqueous suspension of oral bacteria was added to each test tube. The concentration of the peptide in the combined composition was 3.3 mM. The prepared test tubes were kept at 37° C. in a water bath. pH readings were taken at 0 time when the bacteria was added and at 15, 30, 45, 60, 90, 120, 180 and 240 minutes.

salivary sediment = experiment: pH fall and rise with individual peptides of 2-4 amino acid units in salivary sediment-glucose mixture; settings: for pH rising to / pH drop to: salivary sediment 16.7% (v/v), glucose 2.8 mM, peptide 3.3 mM; for pH rising to: measured through the fourth hour; for pH drop to: pH starts slightly above 7
Procedure: Four sets of three 10×75 mm test tubes were provided with 0.2 ml of 8.4 mM (millimolar) of aqueous glucose solution. Set I was provided with 0.2 ml of pooled supernatant saliva. […] Set IV was provided with 0.2 ml of distilled water. […] The concentration of the peptide in the combined composition was 3.3 mM. […] The pH values are as follows: Extensive testing of individual peptides of 2-4 amino acid units as could reasonably be obtained or synthesized was done. The tests were carried out under the same conditions as Sets I-IV. The salivary sediment was present in an amount of 16.7% (v/v), glucose 2.8 mM and the peptide 3.3 mM in the final composition. Duplicate runs without peptide were run parallel to the others as a double check. […] An effective pH rise factor begins to reverse the fall within the first hour. Measurement continues through the fourth hour.

oral bacteria [2] = experiment: pH of glucose solution incubated with oral bacteria suspension, Sets I-IV; settings: 37° C., 3.3 mM

Structure (SMILES)	pH at 0 minutes (oral bacteria [1])	pH at 15 minutes (oral bacteria [1]; 3.3 mM)	pH at 39 minutes (oral bacteria [1]; 39 minutes, 3.3 mM)	pH at 45 minutes (oral bacteria [1]; 3.3 mM)	pH at 60 minutes (oral bacteria [1]; 3.3 mM)	pH at 90 minutes (oral bacteria [1]; 3.3 mM)	pH at 120 minutes (oral bacteria [1]; 3.3 mM)	pH at 180 minutes (oral bacteria [1]; 3.3 mM)	pH at 240 minutes (oral bacteria [1]; 3.3 mM)	pH rising to (salivary sediment)	pH drop to (salivary sediment)	effectiveness as pH rise factor (salivary sediment)	pH at 39 minutes (oral bacteria [2])
N=C(N)NCCC[C@H](N)C(=O)O.NCC(=O)O.NCC(=O)O [Gly-Gly-Arg, glycine-glycine-arginine]	7.4	6.8	6.6	6.4	6.6	6.6	6.7	7.2	7.6	7.5	5.5	–	–
N=C(N)NCCC[C@H](NC(=O)[C@H](CCCCN)NC(=O)CNC(=O)CN)C(=O)O [Gly-Gly-Lys-Arg, H-glycine-glycine-lysine-arginine-OH] (H-GGKR-OH)	–	–	–	–	–	–	–	–	–	8.4	6.4	proven effective	–
N=C(N)NCCC[C@H](N)C(=O)O [Set III, arginine, reference compound]	7.3	5.8	–	5.2	4.9	5.0	5.0	5.3	5.8	–	–	–	5.4
